# In US9492508B2, “Parathyroid hormone analogs and uses thereof” (The General Hospital Corporation, priority 2010, dated 2016):
# Ends that are not written are not given here.
# Legend:
# MC3T3-E1 cells [1] = assay: cAMP RIA in intact MC3T3-E1 cells; format: cell-based, mouse; details: 30 min, room temperature, IBMX; for cAMP MC3T3-E1 cells EC50 (Log M): 6 experiments
# Procedure, shortened: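 Intact mouse pre-osteoblastic MC3T3-E1 cells were stimulated with polypeptide. cAMP in HCl lysates was measured by radioimmunoassay. Values are means of six duplicate experiments with fitted curves.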
# human PTHR1 (R0) = molecular target: T1, human PTHR1 (R0) (Homo sapiens, UniProt Q03431); assay: Competition binding, R0 conformation of human PTHR1 (COS-7 membranes, 125I-PTH(1-34) tracer, GTPγS); details: for R0 binding at human PTH receptor as compared to PTH(1-34): FIG. 5A
# T1 construct: expressed in transfected cells; host or cells: COS-7 cells (membranes)
# T1 sequence (Q03431 27-593): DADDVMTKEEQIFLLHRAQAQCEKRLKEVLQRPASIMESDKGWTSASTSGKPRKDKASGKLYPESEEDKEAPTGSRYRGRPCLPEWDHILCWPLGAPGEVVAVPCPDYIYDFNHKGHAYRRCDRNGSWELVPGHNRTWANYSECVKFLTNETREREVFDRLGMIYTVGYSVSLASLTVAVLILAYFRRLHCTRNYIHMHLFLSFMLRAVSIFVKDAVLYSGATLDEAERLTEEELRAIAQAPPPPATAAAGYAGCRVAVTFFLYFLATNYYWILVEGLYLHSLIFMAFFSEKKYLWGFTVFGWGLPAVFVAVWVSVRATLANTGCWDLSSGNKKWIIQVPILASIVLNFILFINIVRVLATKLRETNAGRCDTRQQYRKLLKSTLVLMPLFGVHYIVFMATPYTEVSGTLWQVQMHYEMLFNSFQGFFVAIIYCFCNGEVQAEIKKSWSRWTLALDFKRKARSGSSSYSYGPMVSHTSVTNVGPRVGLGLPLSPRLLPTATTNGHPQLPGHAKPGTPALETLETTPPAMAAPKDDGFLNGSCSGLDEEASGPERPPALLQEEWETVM
# Method: Briefly, the R^0 form of the receptor can be favored by addition of the non-hydrolyzable nucleotide analog GTPγS. The RG form can be favored, for example, by co-transfection of cells with a negative dominant Gαs subunit. […] Data are means of four experiments, each performed in duplicate. Curves were fit to the data using Graph-Pad Prism 4.0.
# Here, competition binding assays for the R^0 and RG PTHR1 conformation were performed in membranes prepared from transfected COS-7 cells, as described by Dean et al., Mol Endocrinol 22:156-66, 2008. Data are means of three experiments, each performed in duplicate. Curves were fit to the data using Graph-Pad Prism 4.0.
# MC3T3-E1 cells [2] = assay: cAMP response following ligand wash-out in MC3T3-E1 cells; format: cell-based, mouse; details: 100 nM ligand 5 min, then wash-out; FIGS. 7A, 7B
# Method: Cells were treated at room temperature with vehicle or the indicated ligand (100 nM) for five minutes; for each ligand duplicate wells were used to obtain the initial (maximum cAMP values); in these wells, cells were co-incubated with ligand and IBMX. After five minutes of initial treatment, the buffer was removed, and, for the initial wells, the reactions were terminated by addition of 50 mM HCl. In the other wells, the cells were rinsed three times with buffer, and incubated in buffer for varying times, as indicated on the abscissa; after which the buffer was replaced by a buffer containing IBMX, and the cells were incubated for another five minutes. After that, the buffer was removed and the reactions were terminated by addition of 50 mM HCl. The cAMP contents of the HCl lysates were then determined by RIA.
# [3] = Blood Ca++ responses in mice; format: in vivo, mice (C57 BL/6); details: 5 nmol/kg s.c., 4, 6, 8 and 24 hours
# Method: Blood Ca^++ responses in mice were also assayed. Mice (C57 BL/6) were injected subcutaneously with either vehicle or the indicated ligand to give a final dose of 5 nmol/kg body weight, and blood was withdrawn via the tail at times after injection and assessed for Ca^++ concentration using a Bayer Rapid Lab model 348 blood analyzer. […] A similar experiment using 10 nmol/kg by intravenous injection was also conducted with similar results (FIGS. 8C and 8D).
# [4] = Hypercalcemic assay in cynomolgus monkeys (serum and urinary calcium and phosphate); format: in vivo, cynomolgus monkey; details: for serum calcium: 0.25 nmol/kg intravenous, FIG. 12A; for serum calcium, subcutaneous two doses: 2.5 or 10 nmol/kg subcutaneous, FIG. 15A
# Method: The effects of the SP-PTH (SEQ ID NO:11) and SP-PTH-AAK (SEQ ID NO:4) (“SP-AAK”) on serum and urinary calcium and phosphate levels were tested in cynomolgus monkeys. Briefly, three- or four-year-old, male cynomolgus monkeys (HAMRI Co., Ltd., Ibaraki, Japan) were measured for their body weight. Blood was collected into tubes. Monkeys received intravenous or subcutaneous administration of each polypeptide at a dose of 0.3 ml/kg. Polypeptide concentrations in stock solution were adjusted by dilution with 25 mmol/L phosphate-citrate buffer/100 mmol/L NaCl/0.05% Tween 80 (pH.5.0) (PC-buffer). All polypeptides were allowed to stand on ice immediately before administration. Polypeptides were administered to groups of three monkeys each respectively. At 1, 2, 4, and 8 hours after administration, blood was collected by saphenous vein to monitor the time course of calcium and phosphorus levels (FIG. 11A).
# Similar experiments were performed using subcutaneous injection of the polypeptides using two different doses (2.5 nmol/kg or 10 nmol/kg; FIG. 14). […] Reductions in serum inorganic phosphate were also observed (FIGS. 15B and 15C). […] Urine calcium and phosphate data were also collected. Urine was collected in 24-hour intervals prior to injection (T=0) and at times thereafter and assessed for Ca (FIGS. 15E and 15G), Pi (FIGS. 15F and 15H) and creatinine; [Ca] and [PI] are expressed as ratios to [creatinine]. FIGS. 15G and 15H present the change from the pre-injection values. Data are means±s.e.m.; n=3/group.
Substance,EC50 (MC3T3-E1 cells [1]) [nM],cAMP MC3T3-E1 cells Emax (pmole/well) (MC3T3-E1 cells [1]),cAMP MC3T3-E1 cells EC50 (Log M) (MC3T3-E1 cells [1]),R0 binding at human PTH receptor as compared to PTH(1-34) (human PTHR1 (R0)),cAMP-stimulating activity after ligand wash-out (MC3T3-E1 cells [2]),blood calcium levels at later time points vs PTH(1-34) or vehicle [3],serum calcium [4],"serum calcium, subcutaneous two doses [4]","IC50 (human PTHR1 (R0); R0 conformation, mean of 3 experiments, read-out: Binding human PTHR1 IC50 (Log M) R0 (converted)) [nM]"
"AVAEIQLMHQRAKWIQDARRRAFLHKLIAEIHTAEI-OH [SP-PTH-AAK, [Ala^1,3,12,18,22,Gln^10,Arg^11,Trp^14,Lys^26]PTH(1-14)/PTHrP(15-36)]",0.0063,62.3 ± 13.6,−11.2 ± 0.2,enhanced R^0 binding,maintained cAMP-stimulating activity for longer periods of time than PTH(1-34),increased,increased serum calcium,increases in serum calcium were observed in a dose dependent manner,–
"AVAEIQLMHQRAKWIQDLRRRFFLHHLIAEIHTAEI-OH [SP-PTH, [Ala^1,3,12,Gln^10,Arg^11,Trp^14]PTH(1-14)/PTHrP(15-36)]",0.044,60.6 ± 12.4,−10.4 ± 0.1,enhanced R^0 binding,maintained cAMP-stimulating activity for longer periods of time than PTH(1-34),increased,increased serum calcium,increases in serum calcium were observed in a dose dependent manner,1.38
